Test results from patent publication US20230011869A1 (Hoffmann-La Roche Inc., priority 2018, published 2023).
Counter-ions that a name gives are not always drawn.

Test system: Acinetobacter baumannii ATCC17978
Assay: Antimicrobial susceptibility testing: 90% growth inhibitory concentration (IC90) determination, Iso-Sensitest broth
Format: cell-based
Conditions: 90% growth inhibitory concentration, Acinetobacter baumannii ATCC17978, Iso-Sensitest broth, OD 600 nm over 16 h; read-out: ATCC17978 IC90
In short: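 A. baumannii ATCC17978 grown in Iso-Sensitest broth across 10 compound concentrations at 35±2 °C.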

In order of rising IC90:
1. Cc1cc(Nc2nccn3c(-c4ccc(OC(F)F)cc4)cnc23)ccc1C(=O)N1CCN(C(=O)C(O)CN)CC1 (stereo not shown) [Example 255, 3-amino-1-[4-[4-[[3-[4-(difluoromethoxy)phenyl]imi-dazo[1,2-a]pyrazin-8-yl]amino]-2-methylbenzoyl]piperazin-1-yl]-2-hydroxypropan-2-one; 2,2,2-trifluoroacetc acid]  730 nM
2. COc1ccc(-c2cnc3c(Nc4ccc(C(=O)N5CCN(Cc6cnc[nH]6)CC5)c(C)c4)nccn23)cc1F [Example 256, [4-[[3-(3-fluoro-4-methoxyphenyl)imidazo[1,2-a]pyrazin-8-yl]amino]-2-methylphenyl]-[4-(1H-imidazol-5-ylmethyl)piperazin-1-yl]methanone]  760 nM
3. COc1ccc(-c2cnc3c(Nc4ccc(C(=O)N5CCC(C(=O)NCC(O)C(O)CO)CC5)c(C)c4)nccn23)cc1F (stereo not shown) [Example 257, 1-[4-[[3-(3-fluoro-4-methoxyphenyl)imidazo[1,2-a]pyrazin-8-yl]amino]-2-methylbenzoyl]-N-(2,3,4-trihydroxybutyl)piperidine-4-carboxamide]  850 nM
4. COc1ccc(-c2cnc3c(Nc4ccc(C(=O)N5CCC(C(=O)N6CCNC(C(=O)O)C6)CC5)c(C)c4)nccn23)c(F)c1F (stereo not shown) [Example 266, 4-[1-[4-[[3-(2,3-difluoro-4-methoxyphenyl)imidazo[1,2-a]pyrazin-8-yl]amino]-2-methylbenzoyl]piperidine-4-carbonyl]piperazine-2-carboxylic acid]  1100 nM
5. COc1ccc(-c2cnc3c(Nc4ccc(C(=O)N5CCNC(CN(C)C)C5)c(C)c4)nccn23)cc1F (stereo not shown) [Example 254, [3-[(dimethylamino)methyl]pi-perazin-1-yl]-[4-[[3-(3-fluoro-4-methoxyphenyl)imidazo[1,2-a]pyrazin-8-yl]amino]-2-methylphenyl]methanone; hy-drochloride]  2100 nM
6. Cc1cc(Nc2nccn3c(-c4ccc(OC(F)F)cc4)cnc23)ccc1C(=O)N1CCN(C(=O)CC[C@@H](N)C(=O)O)CC1 [Example 271, (2R)-2-amino-5-[4-[4-[[3-[4-(difluoromethoxy)phenyl]imi-dazo[1,2-a]pyrazin-8-yl]amino]-2-methylbenzoyl]piperazin-1-yl]-5-oxopentanoic acid; formic acid]  2100 nM
7. COc1ccc(-c2cnc3c(Nc4ccc(C(=O)N5CCC(C(=O)N6CCN(C)C(C(=O)O)C6)CC5)c(C)c4)nccn23)c(F)c1F (stereo not shown) [Example 273, 4-[1-[4-[[3-(2,3-difluoro-4-methoxyphenyl)imidazo[1,2-a]pyrazin-8-yl]amino]-2-methylbenzoyl]piperidine-4-carbonyl]-1-methylpiperazine-2-carboxylic acid]  2400 nM
8. Cc1cc(Nc2nccn3c(-c4ccc(OCC#CCN)c(F)c4)cnc23)ccc1C(=O)N1CCC(CNC(=O)OC(C)(C)C)CC1 [Example 274, tert-butyl N-[[1-[4-[[3-[4-(4-aminobut-2-ynoxy)-3-fluorophenyl]imidazo[1,2-a]pyrazin-8-yl]amino]-2-methylbenzoyl]piperidin-4-yl]methyl]carbamate]  2800 nM
9. COc1ccc(-c2cnc3c(Nc4ccc(C(=O)N5CCC(C(=O)NC(CN(C)C)C(=O)O)CC5)c(C)c4)nccn23)cc1F (stereo not shown) [Example 278, 3-(dimethylamino)-2-[[1-[4-[[3-(3-fluoro-4-methoxyphenyl)imidazo[1,2-a]pyrazin-8-yl]amino]-2-methylbenzoyl]piperidine-4-carbonyl]amino]propanoic acid]  3800 nM

Same assay, conditions: Acinetobacter baumannii, ATCC17978, 16 h, read-out: ATCC17978 IC90, 90% growth inhibitory concentration, Acinetobacter baumannii ATCC17978, Iso-Sensitest broth, OD 600 nm over 16 h

In order of falling IC90:
1. Cc1cc(Nc2nccn3c(-c4ccc(OC(F)F)cc4)cnc23)ccc1C(=O)N1CCN(C(=O)c2cccc(C(=O)O)c2)CC1 [Example 277, 3-[4-[4-[[3-[4-(difluoromethoxy)phenyl]imi-dazo[1,2-a]pyrazin-8-yl]amino]-2-methylbenzoyl]piperazine-1-carbonyl]benzoic acid]  3800 nM
2. Cc1cc(Nc2nccn3c(-c4ccc(OC(F)F)cc4)cnc23)ccc1C(=O)N1CCN(C(=O)c2cccc(S(=O)(=O)O)c2)CC1 [Example 276, 3-[4-[4-[[3-[4-(difluoromethoxy)phenyl]imi-dazo[1,2-a]pyrazin-8-yl]amino]-2-methylbenzoyl]piperazine-1-carbonyl]benzenesulfonic acid]  3300 nM
3. Cc1cc(Nc2nccn3c(-c4ccc(OC(F)F)cc4)cnc23)ccc1C(=O)N1CCN(C(=O)[C@H](N)CCC(=O)O)CC1 [Example 275, (4R)-4-amino-5-[4-[4-[[3-[4-(difluoromethoxy)phenyl]imi-dazo[1,2-a]pyrazin-8-yl]amino]-2-methylbenzoyl]piperazin-1-yl]-5-oxopentanoic acid; hydrochloride]  3100 nM
4. Cc1cc(Nc2nccn3c(-c4ccc(OC(F)F)cc4)cnc23)ccc1C(=O)N1CCN(C(=O)[C@@H](N)CCC(=O)O)CC1 [Example 272, (4S)-4-amino-5-[4-[4-[[3-[4-(difluoromethoxy)phenyl]imi-dazo[1,2-a]pyrazin-8-yl]amino]-2-methylbenzoyl]piperazin-1-yl]-5-oxopentanoic acid; hydrochloride]  2200 nM
5. Cc1cc(Nc2nccn3c(-c4ccc(OC(F)F)cc4)cnc23)ccc1C(=O)N1CCN(C(=O)c2cc(C(=O)O)ncn2)CC1 [Example 269, 6-[4-[4-[[3-[4-(difluoromethoxy)phenyl]imi-dazo[1,2-a]pyrazin-8-yl]amino]-2-methylbenzoyl]piperazine-1-carbonyl]pyrimidine-4-carboxylic acid]  2000 nM
6. Cc1cc(Nc2nccn3c(-c4ccc(OC(F)F)cc4)cnc23)ccc1C(=O)N1CCC(C(=O)N2C[C@H](O)[C@@H](O)[C@@H](O)[C@H]2CO)CC1 [Example 270, [4-[[3-[4-(difluoromethoxy)phenyl]imi-dazo[1,2-a]pyrazin-8-yl]amino]-2-methylphenyl]-[4-[(2R,3S,4R,5S)-3,4,5-trihydroxy-2-(hydroxymethyl)piperidine-1-carbonyl]piperidin-1-yl]methanone]  2000 nM
7. Cc1cc(Nc2nccn3c(-c4ccc(OC(F)F)cc4)cnc23)ccc1C(=O)N1CCC(C(=O)N(C)C[C@H](O)[C@@H](O)[C@@H](O)[C@H](O)CO)CC1 [Example 268, 1-[4-[[3-[4-(difluoromethoxy)phenyl]imi-dazo[1,2-a]pyrazin-8-yl]amino]-2-methylbenzoyl]-N-methyl-N-[(2S,3R,4S,5R)-2,3,4,5,6-pentahydroxyhexyl]piperidine-4-carboxamide]  1500 nM
8. Cc1cc(Nc2nccn3c(-c4ccc(OC(F)F)cc4)cnc23)ccc1C(=O)N1CCN(C(=O)C2(C)CNC2)CC1 [Example 267, [4-[[3-[4-(difluoromethoxy)phenyl]imi-dazo[1,2-a]pyrazin-8-yl]amino]-2-methylphenyl]-[4-(3-methylazetidine-3-carbonyl)piperazin-1-yl]methanone]  1300 nM
9. Cc1cc(Nc2nccn3c(-c4ccc(OC(F)F)cc4)cnc23)ccc1C(=O)N1CCC(C(=O)N[C@@H]2CCNC2)CC1 [Example 263, 1-[4-[[3-[4-(difluoromethoxy)phenyl]imi-dazo[1,2-a]pyrazin-8-yl]amino]-2-methylbenzoyl]-N-[(3R)-pyrrolidin-3-yl]piperidine-4-carboxamide; hydrochloride]  1100 nM
10. COc1ccc(-c2cnc3c(Nc4ccc(C(=O)N5CCC(C(=O)N6CCNC(C(=O)O)C6)CC5)c(C)c4)nccn23)cc1F (stereo not shown) [Example 264, 4-[1-[4-[[3-(3-fluoro-4-methoxyphenyl)imidazo[1,2-a]pyrazin-8-yl]amino]-2-methylbenzoyl]piperidine-4-carbonyl]piperazine-2-carboxylic acid; formic acid]  1100 nM
11. Cc1cc(Nc2nccn3c(-c4ccc(OC(F)F)cc4)cnc23)ccc1C(=O)N1CCN(C(=O)[C@H]2CC[C@H](C(=O)O)CC2)CC1 [Example 265, 4-[4-[4-[[3-[4-(difluoromethoxy)phenyl]imi-dazo[1,2-a]pyrazin-8-yl]amino]-2-methylbenzoyl]piperazine-1-carbonyl]cyclohexane-1-carboxylic acid]  1100 nM
12. Cc1cc(Nc2nccn3c(-c4ccc(OC(F)F)cc4)cnc23)ccc1C(=O)N1CCN(C(=O)[C@H](N)C2CC2)CC1 [Example 260, (2R)-2-amino-2-cyclopropyl-1-[4-[4-[[3-[4-(difluoromethoxy)phenyl]imi-dazo[1,2-a]pyrazin-8-yl]amino]-2-methylbenzoyl]piperazin-1-yl]ethanone; hydrochloride]  1000 nM
13. CC[C@@H](N)C(=O)N1CCN(C(=O)c2ccc(Nc3nccn4c(-c5ccc(OC(F)F)cc5)cnc34)cc2C)CC1 [Example 261, (2R)-2-amino-1-[4-[4-[[3-[4-(difluoromethoxy)phenyl]imi-dazo[1,2-a]pyrazin-8-yl]amino]-2-methylbenzoyl]piperazin-1-yl]butan-1-one; hydrochloride]  1000 nM
14. Cc1cc(Nc2nccn3c(-c4ccc(OC(F)F)cc4)cnc23)ccc1C(=O)N1CCN(C(=O)[C@@H](N)CCCNC(N)=O)CC1 [Example 262, [(4S)-4-amino-5-[4-[4-[[3-[4-(difluoromethoxy)phenyl]imi-dazo[1,2-a]pyrazin-8-yl]amino]-2-methylbenzoyl]piperazin-1-yl]-5-oxopentyl]urea]  1000 nM
15. Cc1cc(Nc2nccn3c(-c4ccc(OC(F)F)cc4)cnc23)ccc1C(=O)N1CCN(C(=O)[C@H](N)C(C)C)CC1 [Example 258, hydrochloride]  890 nM

Same assay, conditions: read-out: ATCC17978 IC90; 90% growth inhibitory concentration, Acinetobacter baumannii ATCC17978, Iso-Sensitest broth, OD 600 nm over 16 h

In the case of Cc1cc(Nc2nccn3c(-c4ccc(OC(F)F)cc4)cnc23)ccc1C(=O)N1CCN(C(=O)CN)CC1 [Example 259, 2-amino-1-[4-[4-[[3-[4-(difluoromethoxy)phenyl]imi-dazo[1,2-a]pryazin-8-yl]amino]-2-methylbenzoyl]piperazin-1-yl]ethanone; formic acid], the IC90 is reported as 890 nM.
